Results from patent US20190184054A1, “COMPOSITIONS FOR THE TREATMENT OF PAIN AND/OR INFLAMMATION” (BCN PEPTIDES. S.A., priority 2008, published 2019).
Primed or numbered codes have the meaning given here. *: point of attachment. PEG1′ = PEG spacer, n=1 in acetyl-PEGn N-terminus; PEG2′ = PEG spacer, n=2 in acetyl-PEGn N-terminus; PEG3′ = PEG spacer, n=3 in acetyl-PEGn N-terminus; PEG4′ = PEG spacer, n=4 in acetyl-PEGn N-terminus; PEG5′ = PEG spacer, n=5 in acetyl-PEGn N-terminus; Palmitoyl = CCCCCCCCCCCCCCCC(=O)*

Test system: inflammation produced by intraplantar injection of carrageenan
Assay: carrageenan test: paw volume increase after intraplantar carrageenan, measured with a plethysmometer
Assay type: in vivo
Description: Carrageenan is an irritant whose administration causes a powerful inflammation four hours after administration. The inflammatory process can be easily discerned as an increase in the volume of the paw that received carrageenan, measured with a plethysmometer. […] Therefore, the peptides of this invention have anti-inflammatory activity in vivo.

[1] = peptides 5 mg/kg (im), decrease in inflammation standardized to positive control diclofenac

| Molecule | ANTI-INFLAMMATORY ACTIVITY [1] | ANTI-INFLAMMATORY ACTIVITY (diclofenac 10 mg/kg, positive control used as the standard) |
| --- | --- | --- |
| Ac-SEQ ID No. 9-NH2: acetyl N-terminus, amide C-terminus; SNAP-25 residues 26 to 38 (SEQ ID No. 9) (Ac-LESTRRMLQLVEE-NH2; listed as Homo sapiens) | 98% | – |
| Ac-PEG3-SEQ ID No. 11-NH2: acetyl-PEGn (n=3) N-terminus, amide C-terminus; SNAP-25 residues 12 to 17 (SEQ ID No. 11) ({Ac-PEG3′}-EEMQRR-NH2; listed as Homo sapiens) | 42% | – |
| Palm-SEQ ID No. 11-MH2: palmitoyl N-terminus, amide C-terminus; SNAP-25 residues 12 to 17 (SEQ ID No. 11) (Palmitoyl-EEMQRR-NH2; SMILES CCCCCCCCCCCCCCCC(=O)N[C@@H](CCC(=O)O)C(=O)N[C@@H](CCC(=O)O)C(=O)N[C@@H](CCSC)C(=O)N[C@@H](CCC(N)=O)C(=O)N[C@@H](CCCNC(=N)N)C(=O)N[C@@H](CCCNC(=N)N)C(N)=O; listed as Homo sapiens) | 81% | – |
| Palm-SEQ ID No. 9-NH2: palmitoyl N-terminus, amide C-terminus; SNAP-25 residues 26 to 38 (SEQ ID No. 9) (Palmitoyl-LESTRRMLQLVEE-NH2; SMILES CCCCCCCCCCCCCCCC(=O)N[C@@H](CC(C)C)C(=O)N[C@@H](CCC(=O)O)C(=O)N[C@@H](CO)C(=O)N[C@H](C(=O)N[C@@H](CCCNC(=N)N)C(=O)N[C@@H](CCCNC(=N)N)C(=O)N[C@@H](CCSC)C(=O)N[C@@H](CC(C)C)C(=O)N[C@@H](CCC(N)=O)C(=O)N[C@@H](CC(C)C)C(=O)N[C@H](C(=O)N[C@@H](CCC(=O)O)C(=O)N[C@@H](CCC(=O)O)C(N)=O)C(C)C)[C@@H](C)O; listed as Homo sapiens) | 77% | – |
| Ac-SEQ ID No. 4-NH2: acetyl N-terminus, amide C-terminus; SNAP-25 residues 10 to 22 (SEQ ID No. 4) (Ac-ELEEMQRRADQLA-NH2; listed as Homo sapiens) | 65% | – |
| Ac-PEG2-SEQ ID No. 11-NH2: acetyl-PEGn (n=2) N-terminus, amide C-terminus; SNAP-25 residues 12 to 17 (SEQ ID No. 11) ({Ac-PEG2′}-EEMQRR-NH2; listed as Homo sapiens) | 29% | – |
| Palm-SEQ ID No. 4-NH2: palmitoyl N-terminus, amide C-terminus; SNAP-25 residues 10 to 22 (SEQ ID No. 4) (Palmitoyl-ELEEMQRRADQLA-NH2; SMILES CCCCCCCCCCCCCCCC(=O)N[C@@H](CCC(=O)O)C(=O)N[C@@H](CC(C)C)C(=O)N[C@@H](CCC(=O)O)C(=O)N[C@@H](CCC(=O)O)C(=O)N[C@@H](CCSC)C(=O)N[C@@H](CCC(N)=O)C(=O)N[C@@H](CCCNC(=N)N)C(=O)N[C@@H](CCCNC(=N)N)C(=O)N[C@@H](C)C(=O)N[C@@H](CC(=O)O)C(=O)N[C@@H](CCC(N)=O)C(=O)N[C@@H](CC(C)C)C(=O)N[C@@H](C)C(N)=O; listed as Homo sapiens) | 58% | – |
| Ac-SEQ ID No. 11-NH2: acetyl N-terminus, amide C-terminus; SNAP-25 residues 12 to 17 (SEQ ID No. 11) (Ac-EEMQRR-NH2; listed as Homo sapiens) | 49% | – |
| Ac-PEG4-SEQ ID No. 11-NH2: acetyl-PEGn (n=4) N-terminus, amide C-terminus; SNAP-25 residues 12 to 17 (SEQ ID No. 11) ({Ac-PEG4′}-EEMQRR-NH2; listed as Homo sapiens) | 23% | – |
| Ac-PEG1-SEQ ID No. 11-NH2: acetyl-PEGn (n=1) N-terminus, amide C-terminus; SNAP-25 residues 12 to 17 (SEQ ID No. 11) ({Ac-PEG1′}-EEMQRR-NH2; listed as Homo sapiens) | 21% | – |
| Ac-SEQ ID No. 26-NH2: acetyl N-terminus, amide C-terminus; SNAP-25-derived sequence SEQ ID No. 26 (Ac-EEMQRRA-NH2; listed as Homo sapiens) | 14% | – |
| Ac-PEG5-SEQ ID No. 11-NH2: acetyl-PEGn (n=5) N-terminus, amide C-terminus; SNAP-25 residues 12 to 17 (SEQ ID No. 11) ({Ac-PEG5′}-EEMQRR-NH2; listed as Homo sapiens) | 53% | – |
| O=C(O)Cc1ccccc1Nc1c(Cl)cccc1Cl [diclofenac, reference compound] | – | 100% |
